Test results from patent US7501512B2, “Chemical compounds” (SmithKline Beecham Corporation, priority 2003, dated 2009).

Biological target: T1, hYAK3 (Homo sapiens, UniProt O43781)
T1 construct: made in house; host or cells: baculovirus expression system in Sf9 cells
T1 sequence (O43781 124-526): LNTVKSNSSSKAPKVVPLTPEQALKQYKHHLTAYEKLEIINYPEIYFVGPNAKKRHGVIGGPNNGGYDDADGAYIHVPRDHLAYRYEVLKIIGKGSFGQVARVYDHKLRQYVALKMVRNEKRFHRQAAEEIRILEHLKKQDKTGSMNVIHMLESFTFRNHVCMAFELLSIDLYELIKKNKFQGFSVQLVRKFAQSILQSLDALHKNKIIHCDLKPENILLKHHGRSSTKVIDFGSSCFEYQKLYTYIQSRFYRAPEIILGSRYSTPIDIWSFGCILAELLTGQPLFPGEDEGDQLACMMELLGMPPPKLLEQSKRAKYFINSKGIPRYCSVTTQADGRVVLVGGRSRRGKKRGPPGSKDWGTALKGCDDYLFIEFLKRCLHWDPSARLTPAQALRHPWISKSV
Assay: YAK3 scintillation proximity assay using Ser164 of myelin basic protein as phosphoacceptor
Assay type: biochemical
Details: purified GST-hYak3-His6, 0.001 mM ATP, 4 μM Ser164 peptide; read-out: pIC50 values (converted)
Method: YAK3 Scintillation Proximity Assays Using Ser164 of Myelin Basic Protein as the Phosphoacceptor
The source of Ser164 substrate peptide The biotinylated Ser164, S164A peptide (Biotinyl-LGGRDSRAGS*PMARR-OH), sequence derived from the C-terminus of bovine myelin basic protein (MBP) with Ser162 substituted as Ala162, was purchased from California Peptide Research Inc. (Napa, Calif.), and its purity was determined by HPLC. Phosphorylation occurs at position 164 (marked S* above). The calculated molecular mass of the peptide was 2166 dalton. Solid sample was dissolved at 10 mM in DMSO, aliquoted, and stored at −20° C. until use.
hYAK3: Glutathione-S-Transferase (GST)-hYak3-His6 containing amino acid residues 124-526 of human YAK3 (aa 124-526 of SEQ ID NO 2. in U.S. Pat. No. 6,323,318) was purified from baculovirus expression system in Sf9 cells using Glutathione Sepharose 4B column chromatography followed by Ni-NTA-Agarose column chromatography. Purity greater than 65% typically was achieved. Samples, in 50 mM Tris, 150 mM NaCl, 10% glycerol, 0.1% Triton, 250 mM imidazole, 10 mM β-mercapto ethanol, pH 8.0. were stored at −80° C. until use.
Kinase assay of purified hYAK3: Assays were performed in 96 well (Costar, Catalog No. 3789) or 384 well plates (Costar, Catalog No. 3705). Reaction (in 20, 25, or 40 μl volume) mix contained in final concentrations 25 mM Hepes buffer, pH 7.4; 10 mM MgCl2; 10 mM β-mercapto ethanol; 0.0025% Tween-20; 0.001 mM ATP, 0.1 μCi of [γ-^33P]ATP; purified hYAK3 (7-14 ng/assay; 4 nM final); and 4 μM Ser164 peptide. Compounds, titrated in DMSO, were evaluated at concentrations ranging from 50 μM to 0.5 nM. […] Reactions were incubated for 2 hours at room temperature and were stopped by a 75 ul addition of […] Streptavidin Scintillation Proximity beads (Amersham Pharmacia Biotech, Catalog No. RPNQ 0007) in PBS, pH 7.4, 10 mM EDTA, 0.1% Triton X-100, 1 mM ATP. Under the assay conditions defined above, the Km (apparent) for ATP was determined to be 7.2+/−2.4 μM.

First: COc1ccc2c(c1)CCn1c-2cc(Nc2c(OC)cccc2OC)nc1=O [Ia, 2-(2,6-Dimethoxy-phenylamino)-9-methoxy-6,7-dihydro-pyrimido[6,1-a]isoquinolin-4-one]
Second: COc1ccc2c(c1)CCn1c-2cc(Nc2ccccc2Br)nc1=O [Ie, 2-(2-Bromo-phenylamino)-9-methoxy-6,7-dihydro-pyrimido[6,1-a]isoquinolin-4-one]
The IC50 of the first is lower: 10.2 to 100 nM for the first, 102 to 1000 nM for the second.

First: COc1ccc2c(c1)CCn1c-2cc(NCCN(C)C)nc1=O [Iw, 2-(2-Dimethylamino-ethylamino)-9-methoxy-6,7-dihydro-pyrimido[6,1-a]isoquinolin-4-one]
Second: COc1ccc(CNc2cc3n(c(=O)n2)CCc2cc(OC)ccc2-3)cc1 [Iz, 9-Methoxy-2-(4-methoxy-benzylamino)-6,7-dihydro-pyrimido[6,1-a]isoquinolin-4-one]
The IC50 of the first is lower: 10.2 to 100 nM for the first, 102 to 1000 nM for the second.

Biological target: MAPKAP2 kinase (MK2) (Homo sapiens, UniProt P49137)
Assay: MAPKAP2 kinase (MK2) enzyme assay
Assay type: biochemical
Details: 1 nM recombinant MK2, 1 μM ATP, 1 μM peptide substrate; read-out: pIC50 values (converted)
Method: Compounds are tested for MAPKAP2 kinase (MK2) inhibitory activity in an assay that measures the MK2 catalyzed transfer of the γ-phosphate from ATP to serine/threonine residues of a biotinylated peptide [NH2-K(biotin)-KLNRTLSVA (SynPep Corporation, USA)]. Compounds under analysis are dissolved in DMSO to 1 mM and serially diluted 3-fold with DMSO in 96 or 384-well polypropylene or polystyrene plates for a total of 10-12 different concentrations. One uL of each concentration is transferred to the corresponding well of a 96 or 384-well, white, polystyrene assay plate. Reactions are performed in a final volume of 26 uL. An ATP solution (10 uL) is added to each well, and the reaction is initiated by the addition of a MK2/peptide mix (15 uL). The ATP solution is made in H2O and consists of 2.6 μM nonradioactive ATP (SigmaUltra) and 6.5 uCi/mL [γ-^33P]-ATP (Amersham Pharmacia Biotech). The MK2/peptide mix consists of 86.7 mM HEPES (SigmaUltra), pH 7.5, 8.67 mM MgCl2 (SigmaUltra), 0.0043% Tween 20, 1.73 mM dithiothreitol (added fresh from frozen 1M stock), 1.73 μM peptide, and 1.73 nM purified recombinant MK2. Final concentrations of the assay components are 50 mM HEPES, pH 7.5, 5 mM MgCl2, 0.0025% Tween 20, 1 mM dithiothreitol, 1 μM ATP, 2.5 μCi/mL [γ-^33P]-ATP, 1 μM peptide substrate, and 1 nM MK2. The reaction is allowed to proceed for 40 minutes and is then terminated by the addition of ‘stop solution’ (20 uL), followed by the addition of ‘bead mix’ (50 uL). […] The plates are allowed to sit for approximately 8 hours and then are quantitated using a TopCount NXF™ (Packard). Alternatively, the plates are allowed to sit for at least approximately 1 hour, centrifuged at 900 rpm for 3 minutes, and then quantitated using a TopCount NXT™ (Packard). […] Percent inhibition of MK2 activity is calculated for each compound concentration using Equation [1] […]
[formula] where Y2 is the baseline percent inhibition, Vmax is the net maximum percent inhibition (baseline subtracted), and K is the IC50. […] The results for each compound are recorded as pIC50, calculated using Equation [3]. pIC50=−log10([…]) (3)

Chain of MAPKAP2 kinase (MK2) (P49137 whole entry, species assumed): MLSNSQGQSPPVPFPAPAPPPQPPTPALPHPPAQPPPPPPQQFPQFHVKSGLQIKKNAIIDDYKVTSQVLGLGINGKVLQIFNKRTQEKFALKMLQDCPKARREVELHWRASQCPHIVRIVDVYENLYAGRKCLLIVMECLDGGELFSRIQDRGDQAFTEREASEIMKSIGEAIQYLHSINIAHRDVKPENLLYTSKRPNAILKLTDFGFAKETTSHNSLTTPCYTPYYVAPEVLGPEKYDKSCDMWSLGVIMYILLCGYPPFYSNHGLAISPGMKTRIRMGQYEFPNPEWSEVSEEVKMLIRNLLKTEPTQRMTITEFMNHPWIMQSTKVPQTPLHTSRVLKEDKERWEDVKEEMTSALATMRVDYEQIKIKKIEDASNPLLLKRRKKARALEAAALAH

First: COc1ccc2c(c1)CCn1c-2cc(Nc2cccc(S(N)(=O)=O)c2)nc1=O [If, 3-(9-Methoxy-4-oxo-6,7-dihydro-4H-pyrimido[6,1-a]isoquinolin-2-ylamino)-benzenesulfonamide]
Second: COc1ccc2c(c1)CCn1c-2cc(NCCN2CCCC2)nc1=O [Iv, 9-Methoxy-2-(2-pyrrolidin-1-yl-ethylamino)-6,7-dihydro-pyrimido[6,1-a]isoquinolin-4-one]
The IC50 of the first is higher: 102 to 1000 nM for the first, 10 to 100 nM for the second.

Compound `COCCN(C)c1cc2n(c(=O)n1)CCc1cc(OC)ccc1-2` [Iy, 9-Methoxy-2-[(2-methoxy-ethyl)-methyl-amino]-6,7-dihydro-pyrimido[6,1-a]isoquinolin-4-one] has an IC50 of 10 to 100 nM.
